Data reported in patent publication US9957428B2 (priority 2013, dated 2018).
Where two headings read alike, the source gives them in different places.

Assays:
[1] = type: physicochemical
[2] = type: physicochemical; remark: listed apart in the source

## F/C(=C(/F)C(F)(F)F)N1C(F)(F)C(F)(F)OC(F)(F)C1(F)F [Preparatory Example 2, 2,2,3,3,5,5,6,6-octafluoro-4-(1,2,3,3,3-pentafluoroprop-1-enyl)morpholine]
[1]; Temperature 15 ° C.
  Cp: 1.09 J/(g · ° C.)
[1]; Temperature 20 ° C.
  Cp: 1.10 J/(g · ° C.)
[1]; Temperature 25 ° C.
  Cp: 1.11 J/(g · ° C.)
[1]; Temperature 30 ° C.
  Cp: 1.12 J/(g · ° C.)
[1]; Temperature 35 ° C.
  Cp: 1.13 J/(g · ° C.)
[1]; Temperature 40 ° C.
  Cp: 1.14 J/(g · ° C.)

## CCOC(F)(C(F)(F)C(F)(F)C(F)(F)F)C(F)(C(F)(F)F)C(F)(F)F (stereo not shown) [Novec 7500]
[1]; Temperature 15 ° C.
  Cp: 1.08 J/(g · ° C.)
[1]; Temperature 20 ° C.
  Cp: 1.09 J/(g · ° C.)
[1]; Temperature 25 ° C.
  Cp: 1.10 J/(g · ° C.)
[1]; Temperature 30 ° C.
  Cp: 1.11 J/(g · ° C.)
[1]; Temperature 35 ° C.
  Cp: 1.12 J/(g · ° C.)
[1]; Temperature 40 ° C.
  Cp: 1.13 J/(g · ° C.)

## FC(=C(F)C(F)(F)F)N(C(F)(F)F)C(F)(F)F [Preparatory Example 1, 1,2,3,3,3-pentafluoro-N,N-bis(trifluoromethyl)prop-1-en-1-amine]
[2]; Temp 0.0 °C
  Kinematic Viscosity: 0.91 cS
[2]; Temp 25.0 °C
  Kinematic Viscosity: 0.58 cS
[2]; Temp 30.0 °C
  Kinematic Viscosity: 0.54 cS
[2]; Temp 40.0 °C
  Kinematic Viscosity: 0.48 cS
[2]; Temp 50.0 °C
  Kinematic Viscosity: 0.42 cS
[2]; Temp 60.0 °C
  Kinematic Viscosity: 0.38 cS
[1]; Temperature 15 ° C.
  Cp: 1.25 J/(g · ° C.)
[1]; Temperature 20 ° C.
  Cp: 1.27 J/(g · ° C.)
[1]; Temperature 25 ° C.
  Cp: 1.28 J/(g · ° C.)
[1]; Temperature 30 ° C.
  Cp: 1.30 J/(g · ° C.)
[1]; Temperature 35 ° C.
  Cp: 1.32 J/(g · ° C.)
[1]; Temperature 40 ° C.
  Cp: 1.34 J/(g · ° C.)
other
  Vapor Pressure at 68° F.(20° C.): 50.9 mm Hg

## FC(=C(F)C(F)(F)F)N(C(F)(F)F)C(F)(F)C(F)(F)F [Preparatory Example 5, 1,2,3,3,3-pentafluoro-N-(1,1,2,2,2-pentafluoroethyl)-N-(trifluoromethyl)prop-1-en-1-amine]
[1]; Temperature 15 ° C.
  Cp: 1.18 J/(g · ° C.)
[1]; Temperature 20 ° C.
  Cp: 1.20 J/(g · ° C.)
[1]; Temperature 25 ° C.
  Cp: 1.21 J/(g · ° C.)
[1]; Temperature 30 ° C.
  Cp: 1.22 J/(g · ° C.)
[1]; Temperature 35 ° C.
  Cp: 1.23 J/(g · ° C.)
[1]; Temperature 40 ° C.
  Cp: 1.24 J/(g · ° C.)
